The subject of this assay is P388. As to the kind of experiment: Cytostatic activity against mouse P388 cells. It is filed as functional. Conditions: read-out: ED50 (the source's name).

Converted amounts (≈) assume the structure as drawn.

For `O=C(O)[C@H]1CCc2c(cc(O)cc2O[C@@H]2O[C@H](CO)[C@@H](O)[C@H](O)[C@H]2O)C1` [ACERATIOSIDE], the EC50 was 9 µg/mL (≈ 24.3 µM).

For the origin of these results see ChEMBL document CHEMBL1150185, “Antineoplastic agents, 195. Isolation and structure of aceratioside from Aceratium megalospermum” (1990).
